Converted amounts (≈) assume the structure as drawn.

We go through seven compounds from ChEMBL document CHEMBL1147592, “Novel quinazoline-quinoline alkaloids with cytotoxic and DNA topoisomerase II inhibitory activities” (Bioorg Med Chem Lett, 2004).

For one experiment, the system named is P388. The experiment can be described thus: Cytotoxic activity against mouse leukemia P-388 cells. The experiment is classed as functional, cell-based.
In a further experiment the target is DNA topoisomerase II (Homo sapiens, UniProt P11388+Q02880). The experiment can be described thus: Inhibitory activity against human DNA topoisomerase II. The experiment is classed as protein assay.

As for `O=c1c2ccccc2nc2n1C(O)c1cc3ccccc3nc1-2` (stereo not drawn), the IC50 (as a rule, the concentration needed to halve the response being measured) was 5 µg/mL (≈ 16.6 µM) in the experiment with P388 and 25 µM against DNA topoisomerase II.

Take `COC1c2cc3ccccc3nc2-c2nc3ccccc3c(=O)n21` (stereo not drawn): the IC50 turned out to be 9 µg/mL (≈ 28.5 µM) in the experiment with P388 and 25 µM against DNA topoisomerase II. Consider `O=C(c1cnc2ccccc2c1)c1nc(O)c2ccccc2n1`, for which the half-maximal inhibitory concentration (IC50) with P388 came out at 20 µg/mL (≈ 66.4 µM); against DNA topoisomerase II, 25 µM. The matching figures for `CC(=O)NC1c2cc3ccccc3nc2-c2nc3ccccc3c(=O)n21` (stereo not drawn): 33 µg/mL (≈ 96.4 µM) and 25 µM. On to `Oc1nc(-c2cnc3ccccc3c2)nc2ccccc12`, for which the IC50 was 40 µg/mL (≈ 146 µM) in the experiment with P388 and 25 µM at DNA topoisomerase II.

The compound `CC(C(C)N1CC(=O)NC(=O)C1)N1CC(=O)NC(=O)C1` (stereo not drawn) [ICRF-193] returned an IC50 on DNA topoisomerase II of 13.9 µM.

On to `O=c1c2ccccc2nc2n1Cc1cc3ccccc3nc1-2` [LUOTONIN A], for which the IC50 in the experiment on P388 turned out to be 1.8 µg/mL (≈ 6.31 µM); on DNA topoisomerase II it was 28.5 µM.
